Source: patent US12391737B2, “Soluble NPY2 receptor agonists” (Boehringer Ingelheim International GmbH, priority 2020, dated 2025)
*1 amine or outer side, *2 acyl side, *3 side chain or, on linkers, in order; H or OH if unused. Where a SMILES comes first, the peptide text is derived from it. Side-chain parts run from the residue outwards. The star is where a group is joined. C18 diacid = O=C(O)CCCCCCCCCCCCCCCCC(=O)*; γGlu = O=C(O)[C@H](CCC(=O)[*:2])N[*:1]; Isovaleryl = CC(C)CC(=O)*; Ahx = NCCCCCC(=O)O

What was measured:
Solubility determination = conditions: for Sol6: pH 6; for Sol7: pH 7
Method in brief: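 First, TFA-salt peptide was added to 0.1 M sodium diphosphate (pH 6.4 or 7.0) to 10 mg/ml and shaken 2 h at room temperature. Next, insoluble material was filtered off. Finally, filtrate and control, each 1 mg/ml in 50% acetonitrile, were compared by reversed-phase chromatography.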

[1] = target: T1, Human Neuropeptide Y2 Receptor (Homo sapiens, UniProt P49146); assay: Radioligand binding competition assay (RLB); conditions: Table 3, 125I-PYY(1-36) competition; read-out: Ki
T1 construct: purchased CHEMICON HTS066M
T1 sequence (P49146 1-381): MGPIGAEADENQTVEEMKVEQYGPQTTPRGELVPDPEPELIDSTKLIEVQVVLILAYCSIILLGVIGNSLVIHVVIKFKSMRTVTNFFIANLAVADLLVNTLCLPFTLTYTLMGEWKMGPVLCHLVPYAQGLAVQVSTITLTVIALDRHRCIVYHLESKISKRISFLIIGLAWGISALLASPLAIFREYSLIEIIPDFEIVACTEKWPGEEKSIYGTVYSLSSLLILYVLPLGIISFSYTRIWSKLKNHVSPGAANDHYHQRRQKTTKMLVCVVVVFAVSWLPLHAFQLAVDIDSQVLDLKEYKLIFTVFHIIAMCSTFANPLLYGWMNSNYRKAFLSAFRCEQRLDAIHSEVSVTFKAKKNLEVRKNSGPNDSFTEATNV
Method in brief: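 Filtration competition binding on membranes from cells expressing the receptor, 0.5 μg protein/well, in 50 mM HEPES, 5 mM MgCl2, 1 mM CaCl2, pH 7.4, with 0.2% ovalbumin. Incubation ran 2 h at room temperature, followed by GF/C filtration and scintillation counting. IC50 came from nonlinear sigmoidal fits.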

For CC[C@H](C)[C@H](NC(=O)[C@H](CCC(=O)O)NC(=O)[C@H](CCC(=O)O)NC(=O)[C@@H]1CCCN1C(=O)[C@@H](NC(=O)[C@H](C)NC(=O)[C@H](CC(=O)O)NC(=O)[C@H](CCC(=O)O)NC(=O)[C@H](CCC(=O)O)NC(=O)[C@@H]1CCCN1C(=O)[C@H](CCCCNC(=O)CCCCCNC(=O)CC[C@H](NC(=O)CCCCCCCCCCCCCCCCC(=O)O)C(=O)O)NC(=O)[C@H](CCC(=O)O)NC(=O)[C@@H]1CCCN1C(=O)[C@H](C)NC(=O)CC(C)C)[C@@H](C)O)C(=O)N[C@@H](CCC(N)=O)C(=O)N[C@@H](CCCNC(=N)N)C(=O)N[C@@H](Cc1ccc(O)cc1)C(=O)N[C@@H](Cc1ccc(O)cc1)C(=O)N[C@@H](CCC(=O)O)C(=O)N[C@@H](CO)C(=O)N[C@@H](CC(C)C)C(=O)N[C@@H](CCCNC(=N)N)C(=O)N[C@@H](Cc1c[nH]cn1)C(=O)N[C@@H](Cc1ccc(O)cc1)C(=O)N[C@@H](Cc1ccc(O)cc1)C(=O)N[C@@H](CC(N)=O)C(=O)N[C@@H](Cc1c[nH]c2ccccc12)C(=O)N[C@@H](CC(C)C)C(=O)N[C@H](C(=O)N[C@@H](CCCNC(=N)N)C(=O)N[C@@H](CCC(N)=O)C(=O)N[C@@H](CCCNC(=N)N)C(=O)N[C@@H](Cc1ccc(O)cc1)C(N)=O)[C@@H](C)O [Compound 191, N{alpha-4}-(3-methylbutanoyl)-N{epsilon-7}-(6-[(4S)-4-carboxy-4-(17-carboxyheptadecanamido)butanamido]hexanoyl)-[4A,7K,9E,13T,17I,18Q,22E,28Y,30W,31L]-hPYY(4-36)], the “Sol6” value (Solubility determination) was over 10.0 mg/mL, the “Sol7” value (Solubility determination) was over 10.0 mg/mL and the Ki [1] was 8.32 nM.
In the case of CC[C@H](C)[C@H](NC(=O)[C@H](Cc1ccc(O)cc1)NC(=O)[C@H](Cc1ccc(O)cc1)NC(=O)[C@H](CCCNC(=N)N)NC(=O)[C@H](CCC(N)=O)NC(=O)[C@H](CC(C)C)NC(=O)[C@H](CCC(=O)O)NC(=O)[C@H](CCC(=O)O)NC(=O)[C@@H]1CCCN1C(=O)[C@@H](NC(=O)[C@H](C)NC(=O)[C@H](CC(=O)O)NC(=O)[C@H](CCC(=O)O)NC(=O)[C@H](CCC(=O)O)NC(=O)[C@@H]1CCCN1C(=O)[C@H](CCCCNC(=O)CCCCCNC(=O)CC[C@H](NC(=O)CCCCCCCCCCCCCCCCC(=O)O)C(=O)O)NC(=O)[C@H](CCC(=O)O)NC(=O)[C@@H]1CCCN1C(=O)[C@H](C)NC(=O)CC(C)C)[C@@H](C)O)C(=O)N[C@@H](CO)C(=O)N[C@@H](CC(C)C)C(=O)N[C@@H](CCCNC(=N)N)C(=O)N[C@@H](Cc1c[nH]cn1)C(=O)N[C@@H](Cc1ccc(O)cc1)C(=O)N[C@@H](Cc1ccc(O)cc1)C(=O)N[C@@H](CC(N)=O)C(=O)N[C@@H](Cc1c[nH]c2ccccc12)C(=O)N[C@@H](CC(C)C)C(=O)N[C@H](C(=O)N[C@@H](CCCNC(=N)N)C(=O)N[C@@H](CCC(N)=O)C(=O)N[C@@H](CCCNC(=N)N)C(=O)N[C@@H](Cc1ccc(O)cc1)C(N)=O)[C@@H](C)O [Compound 66, N{alpha-4}-(3-methylbutanoyl)-N{epsilon-7}-(6-[(4S)-4-carboxy-4-(17-carboxyheptadecanamido)butanamido]hexanoyl)-[4A,7K,9E,13T,18Q,22I,28Y,30W,31L]-hPYY(4-36)], the “Sol6” value (Solubility determination) is reported as 9.2 mg/mL, the “Sol7” value (Solubility determination) is reported as 9.2 mg/mL and the Ki [1] is reported as 2.33 nM.
In the case of CC(C)CC(=O)N[C@@H](C)C(=O)N1CCC[C@H]1C(=O)N[C@@H](CCC(=O)O)C(=O)N[C@@H](CCCCNC(=O)CCCCCNC(=O)CC[C@H](NC(=O)CCCCCCCCCCCCCCCCC(=O)O)C(=O)O)C(=O)N1CCC[C@H]1C(=O)N[C@@H](CCC(=O)O)C(=O)N[C@@H](CCC(=O)O)C(=O)N[C@@H](CC(=O)O)C(=O)N[C@@H](C)C(=O)N[C@@H](CCC(=O)O)C(=O)N1CCC[C@H]1C(=O)N[C@@H](CCC(=O)O)C(=O)N[C@@H](CCC(=O)O)C(=O)N[C@@H](CC(C)C)C(=O)N[C@@H](CCC(N)=O)C(=O)N[C@@H](CCCNC(=N)N)C(=O)N[C@@H](Cc1ccc(O)cc1)C(=O)N[C@@H](Cc1ccc(O)cc1)C(=O)N[C@H](C(=O)N[C@@H](CO)C(=O)N[C@@H](CC(C)C)C(=O)N[C@@H](CCCNC(=N)N)C(=O)N[C@@H](Cc1c[nH]cn1)C(=O)N[C@@H](Cc1ccc(O)cc1)C(=O)N[C@@H](Cc1ccc(O)cc1)C(=O)N[C@@H](CC(N)=O)C(=O)N[C@@H](Cc1c[nH]c2ccccc12)C(=O)N[C@@H](CC(C)C)C(=O)N[C@H](C(=O)N[C@@H](CCCNC(=N)N)C(=O)N[C@@H](CCC(N)=O)C(=O)N[C@@H](CCCNC(=N)N)C(=O)N[C@@H](Cc1ccc(O)cc1)C(N)=O)[C@@H](C)O)C(C)C [Compound 126, N{alpha-4}-(3-methylbutanoyl)-N{epsilon-7}-(6-[(4S)-4-carboxy-4-(17-carboxyheptadecanamido)butanamido]hexanoyl)-[4A,7K,9E,13E,18Q,22V,28Y,30W,31L]-hPYY(4-36)], the “Sol6” value (Solubility determination) is reported as 9.6 mg/mL, the “Sol7” value (Solubility determination) is reported as 8.8 mg/mL and the Ki [1] is reported as 4.42 nM.
For CC(C)CC(=O)N[C@@H](C)C(=O)N1CCC[C@H]1C(=O)N[C@@H](CCC(=O)O)C(=O)N[C@@H](CCCCNC(=O)CCCCCNC(=O)CC[C@H](NC(=O)CCCCCCCCCCCCCCCCC(=O)O)C(=O)O)C(=O)N1CCC[C@H]1C(=O)NCC(=O)N[C@@H](C)C(=O)N[C@@H](CC(=O)O)C(=O)N[C@@H](C)C(=O)N[C@@H](CO)C(=O)N1CCC[C@H]1C(=O)N[C@@H](CCC(=O)O)C(=O)N[C@@H](CCCCN)C(=O)N[C@@H](CC(C)C)C(=O)N[C@@H](CCC(N)=O)C(=O)N[C@@H](CCCNC(=N)N)C(=O)N[C@@H](Cc1ccc(O)cc1)C(=O)N[C@@H](Cc1ccc(O)cc1)C(=O)N[C@H](C(=O)N[C@@H](CO)C(=O)N[C@@H](CC(C)C)C(=O)N[C@@H](CCCNC(=N)N)C(=O)N[C@@H](Cc1c[nH]cn1)C(=O)N[C@@H](Cc1ccc(O)cc1)C(=O)N[C@@H](Cc1ccc(O)cc1)C(=O)N[C@@H](Cc1c[nH]cn1)C(=O)N[C@@H](CCCCN)C(=O)N[C@@H](CC(C)C)C(=O)N[C@H](C(=O)N[C@@H](CCCNC(=N)N)C(=O)N[C@@H](CCC(N)=O)C(=O)N[C@@H](CCCNC(=N)N)C(=O)N[C@@H](Cc1ccc(O)cc1)C(N)=O)[C@@H](C)O)C(C)C [Compound 174, N{alpha-4}-(3-methylbutanoyl)-N{epsilon-7}-(6-[(4S)-4-carboxy-4-(17-carboxyheptadecanamido)butanamido]hexanoyl)-[4A,7K,10A,16K,18Q,22V,28Y,29H,30K,31L]-hPYY(4-36)] (Isovaleryl-APEK([Ahx-γGlu-C18 diacid])PGADASPEKLQRYYVSLRHYYHKLTRQRY-NH2), the “Sol6” value (Solubility determination) was 3.1 mg/mL, the “Sol7” value (Solubility determination) was 1.2 mg/mL and the Ki [1] was 0.21 nM.
For CC(C)CC(=O)N[C@@H](C)C(=O)N1CCC[C@H]1C(=O)N[C@@H](CCC(=O)O)C(=O)N[C@@H](CCCCNC(=O)CCCCCNC(=O)CC[C@H](NC(=O)CCCCCCCCCCCCCCCCC(=O)O)C(=O)O)C(=O)N1CCC[C@H]1C(=O)N[C@@H](CCC(=O)O)C(=O)N[C@@H](CCC(=O)O)C(=O)N[C@@H](CC(=O)O)C(=O)N[C@@H](C)C(=O)N[C@@H](C)C(=O)N1CCC[C@H]1C(=O)N[C@@H](CCC(=O)O)C(=O)N[C@@H](CCC(=O)O)C(=O)N[C@@H](CC(C)C)C(=O)N[C@@H](CCC(N)=O)C(=O)N[C@@H](CCCCN)C(=O)N[C@@H](Cc1ccc(O)cc1)C(=O)N[C@@H](Cc1ccc(O)cc1)C(=O)N[C@H](C(=O)N[C@@H](CO)C(=O)N[C@@H](CC(C)C)C(=O)N[C@@H](CCCNC(=N)N)C(=O)N[C@@H](Cc1c[nH]cn1)C(=O)N[C@@H](Cc1ccc(O)cc1)C(=O)N[C@@H](Cc1ccc(O)cc1)C(=O)N[C@@H](CC(N)=O)C(=O)N[C@@H](Cc1c[nH]c2ccccc12)C(=O)N[C@@H](CC(C)C)C(=O)N[C@H](C(=O)N[C@@H](CCCNC(=N)N)C(=O)N[C@@H](CCC(N)=O)C(=O)N[C@@H](CCCNC(=N)N)C(=O)N[C@@H](Cc1ccc(O)cc1)C(N)=O)[C@@H](C)O)C(C)C [Compound 123, N{alpha-4}-(3-methylbutanoyl)-N{epsilon-7}-(6-[(4S)-4-carboxy-4-(17-carboxyheptadecanamido)butanamido]hexanoyl)-[4A,7K,9E,13A,18Q,19K,22V,28Y,30W,31L]-hPYY(4-36)], the “Sol6” value (Solubility determination) was 9.1 mg/mL, the “Sol7” value (Solubility determination) was 8.7 mg/mL and the Ki [1] was 3.65 nM.
